Results taken from patent US10683272B2 (THE JOHNS HOPKINS UNIVERSITY, priority 2014, dated 2020).

How the values were obtained:
[1] = baboon PET imaging and pharmacokinetics; assay type: in vivo, Papio anubis (baboon)
Source text: A male Papio anubis (8 y, 27.1 kg) was used to study the biodistribution of ^86Y-6. The baboon was positioned supine during image acquisition. For attenuation correction a low-dose CT image was acquired immediately before the first and last PET images. PET and CT images were co-registered across time points using a Hermes workstation (Hermes Medical Solutions, Greenville, S.C.). Fourteen source organ contours were delineated on the CT with the aid of fused PET/CT images. Decay-corrected mean activity concentrations (Bq/g) were extracted for each source organ from the PET images. Contours were drawn on the PET images of the kidneys, renal cortices, and prostate. The decay-corrected total activity per organ quantified within the PET images had nearly one-to-one correspondence with the administered radioactivity for the first six time points (1 h or less), which confirmed that the administered radioactivity was fully accounted for on the PET images, after which the total amount was less than the administered amount due to voiding. The total amount of radioactivity quantified in each of the PET images was used to obtain the whole-body retention kinetics.
Nine static PET images were acquired at 5, 10, 15, 20, 35 min, 1, 2, 3.5 and 23 h after intravenous administration of 80.7 MBq (2.2 mCi) of ^86Y-6 as a bolus. Images were acquired in 2D mode on a Discovery Rx VCT scanner (GE Healthcare).
For each time-point, the activity concentration (in Bq/cm^3) was measured in each of the 14 delineated organs and multiplied by the organ volume to obtain the total activity per time point per organ. The measured values were then decay-corrected and divided by the baboon organ mass, determined by the CT density and volume from the drawn contours, and the injected radioactivity to obtain the fraction of initial radioactivity per gram (FIA/g) for each time point and each organ. The baboon FIA/g values were then converted to human FIA (per organ) using the following equation (Schwartz et al., 2011; Woodard et al., 1975): […]
That approach assumes that the concentration of activity in a particular tissue relative to the overall concentration in the whole body is preserved across species (i.e., organ concentration/total body concentration is the same for baboon and man). The resulting human FIA values were plotted as a function of time (nine data points) for each organ and fit to a bi-exponential expression: FIA(t)=A1.e^−(λ1^bio^.t)+A2.e^−(Δ2^bio^.t) (2)

[2] = system: PSMA+ PC-3 PIP and PSMA− PC-3 flu tumors; assay: small animal PET-CT imaging; assay type: in vivo, NOD/SCID mice; details: PET-CT
Experimental: Mice (n=3 for ^86Y-4 or ^86Y-6 and n=2 for ^86Y-5) were injected via the tail vein with 3.33-6.21 MBq (90-168 μCi) of radiotracer formulated in 100 μL of saline at pH ˜7. […] At different time points, anesthetized individual mice were placed in the prone position on the scanner gantry and secured with medical tape while the anesthesia flow rate was increased to 0.8 L/min. Images were reconstructed using the FORE/2D-OSEM method (two iterations, 16 subsets) and included correction for radioactive decay, scanner dead time, and scattered radiation. Partial volume correction (PVC) was not performed. After each PET scan, a CT scan was acquired for anatomic co-registration. To facilitate PET and CT image co-registration, a special animal bed was employed which fits both the PET and CT scanners. The animals were under anesthesia and immobilized when moving between scanners as well as during both scans. The reconstructed PET and CT images were then manually co-registered through rigid transformation, by aligning natural landmarks (such as the animal limbs and the bed contour) using the AMIDE software (from sourceforge.net/amide).
Dynamic, whole-body PET and CT images were acquired on an eXplore VISTA small-animal PET (GE Healthcare, Little Chalfont, Buckinghamshire, UK) and an X-SPECT small SPECT/CT system (Gamma Medica Ideas, Northridge, Calif.), respectively.

[3] = bi-exponential fit, listed as [^86Y]6
[4] = whole-body retention kinetics fit

O=C([O-])CN1CCN(CC(=O)[O-])CCN(CC(=O)[O-])C(Cc2ccc(NC(=S)NCCCCNC(=O)CCCCCCC(=O)NCCCC[C@H](NC(=O)N[C@@H](CCC(=O)O)C(=O)O)C(=O)O)cc2)CN(CC(=O)[O-])CC1.[86Y+3] (stereo partly shown) [^86Y-6]
percent of kidney radioactivity cleared in the rapid phase ([1]; baboon): Sixty-eight | percent of renal cortex radioactivity cleared in the rapid phase ([1]; baboon): 66% | highest uptake in kidneys ([1]; baboon, about 25 min post-injection): 8 % ID/g | Brain, biological half-life of A1 ([1]; bi-exponential fit): 0.71 h | Brain, biological half-life of A2 ([1]; bi-exponential fit): 8.71 h | Brain, fitted parameter A1 ([1]; bi-exponential fit): 0.53 % ID | Brain, fitted parameter A2 ([1]; bi-exponential fit): 0.11 % ID | Heart, biological half-life of A1 ([1]; bi-exponential fit): 0.29 h | Heart, biological half-life of A2 ([1]; bi-exponential fit): 6.49 h | Heart, fitted parameter A1 ([1]; bi-exponential fit): 1.55 % ID | Heart, fitted parameter A2 ([1]; bi-exponential fit): 0.29 % ID | Kidneys, biological half-life of A1 ([1]; bi-exponential fit): 0.84 h | Kidneys, biological half-life of A2 ([1]; bi-exponential fit): 16.6 h | Kidneys, fitted parameter A1 ([1]; bi-exponential fit): 6.36 % ID | Kidneys, fitted parameter A2 ([1]; bi-exponential fit): 2.98 % ID | Large intestine, biological half-life of A1 ([1]; bi-exponential fit): 0.25 h | Large intestine, biological half-life of A2 ([1]; bi-exponential fit): 5.97 h | Large intestine, fitted parameter A1 ([1]; bi-exponential fit): 0.45 % ID | Large intestine, fitted parameter A2 ([1]; bi-exponential fit): 0.30 % ID | Liver, biological half-life of A1 ([1]; bi-exponential fit): 0.38 h | Liver, biological half-life of A2 ([1]; bi-exponential fit): 7.71 h | Liver, fitted parameter A1 ([1]; bi-exponential fit): 4.77 % ID | Liver, fitted parameter A2 ([1]; bi-exponential fit): 1.52 % ID | Lungs, biological half-life of A1 ([1]; bi-exponential fit): 0.42 h | Lungs, biological half-life of A2 ([1]; bi-exponential fit): 6.29 h | Lungs, fitted parameter A1 ([1]; bi-exponential fit): 2.78 % ID | Lungs, fitted parameter A2 ([1]; bi-exponential fit): 1.27 % ID | Muscle, biological half-life of A1 ([1]; bi-exponential fit): 1.98 h | Muscle, biological half-life of A2 ([1]; bi-exponential fit): 69.31 h | Muscle, fitted parameter A1 ([1]; bi-exponential fit): 14.98 % ID | Muscle, fitted parameter A2 ([1]; bi-exponential fit): 0.56 % ID | Pancreas, biological half-life of A1 ([1]; bi-exponential fit): 0.66 h | Pancreas, biological half-life of A2 ([1]; bi-exponential fit): 10.60 h | Pancreas, fitted parameter A1 ([1]; bi-exponential fit): 0.24 % ID | Pancreas, fitted parameter A2 ([1]; bi-exponential fit): 0.05 % ID | Prostate, biological half-life of A1 ([1]; bi-exponential fit): 0.67 h | Prostate, biological half-life of A2 ([1]; bi-exponential fit): 5.58 h | Prostate, fitted parameter A1 ([1]; bi-exponential fit): 0.02 % ID | Prostate, fitted parameter A2 ([1]; bi-exponential fit): 0.02 % ID | Renal cortex, biological half-life of A1 ([1]; bi-exponential fit): 1.1 h | Renal cortex, biological half-life of A2 ([1]; bi-exponential fit): about 19 h | Renal cortex, fitted parameter A1 ([1]; bi-exponential fit): 4.23 % ID | Renal cortex, fitted parameter A2 ([1]; bi-exponential fit): 2.16 % ID | Salivary glands, biological half-life of A1 ([1]; bi-exponential fit): 1.56 h | Salivary glands, biological half-life of A2 ([1]; bi-exponential fit): 4.47 h | Salivary glands, fitted parameter A1 ([1]; bi-exponential fit): 0.30 % ID | Salivary glands, fitted parameter A2 ([1]; bi-exponential fit): 0.08 % ID | Small intestine, biological half-life of A1 ([1]; bi-exponential fit): 0.26 h | Small intestine, biological half-life of A2 ([1]; bi-exponential fit): 10.17 h | Small intestine, fitted parameter A1 ([1]; bi-exponential fit): 0.24 % ID | Small intestine, fitted parameter A2 ([1]; bi-exponential fit): 0.10 % ID | Spleen, biological half-life of A1 ([1]; bi-exponential fit): 1.49 h | Spleen, biological half-life of A2 ([1]; bi-exponential fit): 18.74 h | Spleen, fitted parameter A1 ([1]; bi-exponential fit): 0.12 % ID | Spleen, fitted parameter A2 ([1]; bi-exponential fit): 0.04 % ID | Stomach, biological half-life of A1 ([1]; bi-exponential fit): 0.46 h | Stomach, biological half-life of A2 ([1]; bi-exponential fit): 6.14 h | Stomach, fitted parameter A1 ([1]; bi-exponential fit): 0.15 % ID | Stomach, fitted parameter A2 ([1]; bi-exponential fit): 0.09 % ID | Kidneys, biological half-life of A2 [1, 3]: 16.62 h | Renal cortex, biological half-life of A2 [1, 3]: 19.19 h | WB retention, biological half-life of A1 [1, 4]: 5.62 h | WB retention, fitted parameter A1 [1, 4]: 100.00 % ID | earliest time of clear delineation of PSMA+ PC-3 PIP tumor [2]: 15 min
